In publication PMC4268698, “Cell type-specific delivery of short interfering RNAs by dye-functionalised theranostic nanoparticles” (Nature Communications, 2014):
“Also recorded” adds a separate entry of the source.

How the values were obtained:
HepaRG and HUVEC cells = assay: Microfluidic-assisted organoid, co-culture of HepaRG and HUVEC, nanoparticle uptake; format: cell-based, human
Protocol: HUVEC and HepaRG cells were co-cultured using a microfluidic-supported chip. […] 2.7 × 10^4 cells per cm^2 were seeded in William’s E medium supplemented with 10% foetal bovine serum, 100 U ml^−1 penicillin, 100 g ml^−1 streptomycin, 5 U ml^−1 insulin and 5 × 10^−5 M hydrocortisone-hemisuccinate and cultured for 2 weeks. For HepaRG differentiation, cells were cultured with 2% dimethylsulfoxide for two more weeks. Differentiated HepaRG cells were seeded at 4,000 cells per mm^2 at the bottom of the chip cavities beneath the membrane. 300,000 HUVEC (4,300 cells per mm^2) were seeded above the membrane and co-cultured with differentiated HepaRG cells in for 24 h before the uptake experiments. Cells were perfused with 50 μg ml^−1 NPs in Williams E medium. […] For each time point three pictures were taken and 200 region of interest (ROI) per picture were analysed.

liver parenchyma = assay: Intravital microscopy of liver (fluorescence decay, cellular association); format: in vivo, male FVB/NRj mice; settings: Cy5 channel, after injection
Protocol: IVM was performed using an inverted epifluorescence microscope (AxioObserverR Z1; Zeiss) as described previously.

[1] = system: primary murine hepatocytes; assay: Uptake of free DY-635 by primary hepatocytes, with and without cyclosporine A; format: cell-based, mouse; settings: 37 or 4 °C
Protocol: This was then diluted 1:1 (v/v) with either 400 nM DY-635 (amino-terminated) or 10 μg NP in KHB. […] Lysates were analysed on a Tecan plate reader (Tecan) (excitation: 488±09 nm, emission 530±20 nm). […] Data were normalised to cellular protein (Bradford).

NTCP = biological target: T1, NTCP (Homo sapiens, UniProt Q14973); assay: DY-635 interaction with hepatic basolateral transporters, transfected HEK293 cells, radio-labelled substrate uptake; format: cell-based; settings: 10 μM DY-635; substrate [3H]estrone-sulfate 10 μM; transfected HEK cells
T1 construct: expressed in transfected cells; host or cells: HEK293 (pcDNA5 vector)
T1 sequence (Q14973 1-349): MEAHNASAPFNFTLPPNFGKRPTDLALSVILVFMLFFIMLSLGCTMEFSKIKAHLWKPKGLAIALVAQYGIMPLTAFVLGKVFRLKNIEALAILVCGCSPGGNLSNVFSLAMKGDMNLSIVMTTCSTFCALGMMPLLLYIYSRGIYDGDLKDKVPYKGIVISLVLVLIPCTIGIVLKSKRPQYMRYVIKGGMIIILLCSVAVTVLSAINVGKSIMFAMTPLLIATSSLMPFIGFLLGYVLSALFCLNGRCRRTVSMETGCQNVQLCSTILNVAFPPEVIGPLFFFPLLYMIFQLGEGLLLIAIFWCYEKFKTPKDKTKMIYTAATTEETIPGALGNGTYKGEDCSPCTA
Protocol: (§1) HEK293 cells were transfected with OATP1B1 (SLCO1B1, NM_006446), OATP1B3 (SLCO1B3, NM_019844), OCT1 (SLC22A1, NM_003057.2), OAT2 (SLC22A7, NM_006672), NTCP (SLC10A1, NM_003049), NaDC3 (SLC13A3, AF154121) or the empty vector (pcDNA5).Transfected HEK293 cells were seeded at 2 × 10^5 cells per well and cultured for 3 days.

OATP1B3 = biological target: T2, OATP1B3 (Homo sapiens, UniProt Q9NPD5); assay: as above; format: cell-based; settings: 10 μM DY-635 vs rifampicin 20 μM; substrate [3H]sulfobromphthalein 50 nM; transfected HEK cells
T2 construct: expressed in transfected cells; host or cells: HEK293 (pcDNA5 vector)
T2 sequence (Q9NPD5 1-702): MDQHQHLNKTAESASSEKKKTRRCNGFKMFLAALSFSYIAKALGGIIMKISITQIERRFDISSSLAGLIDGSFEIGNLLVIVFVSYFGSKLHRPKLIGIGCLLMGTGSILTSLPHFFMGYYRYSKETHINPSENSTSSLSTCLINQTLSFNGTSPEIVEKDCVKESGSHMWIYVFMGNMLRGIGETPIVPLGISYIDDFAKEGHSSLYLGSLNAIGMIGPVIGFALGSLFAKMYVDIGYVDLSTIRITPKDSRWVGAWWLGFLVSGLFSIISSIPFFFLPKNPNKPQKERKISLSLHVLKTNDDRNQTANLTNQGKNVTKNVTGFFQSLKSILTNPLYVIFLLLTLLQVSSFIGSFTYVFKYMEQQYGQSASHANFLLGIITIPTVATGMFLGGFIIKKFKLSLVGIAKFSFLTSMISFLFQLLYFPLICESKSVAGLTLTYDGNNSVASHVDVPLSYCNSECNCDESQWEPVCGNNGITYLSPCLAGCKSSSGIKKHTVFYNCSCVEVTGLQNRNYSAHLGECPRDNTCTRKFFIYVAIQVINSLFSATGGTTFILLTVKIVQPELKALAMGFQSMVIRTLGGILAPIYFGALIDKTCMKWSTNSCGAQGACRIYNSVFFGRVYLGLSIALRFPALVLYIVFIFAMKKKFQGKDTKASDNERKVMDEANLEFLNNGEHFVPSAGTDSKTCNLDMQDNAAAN
Protocol: as §1

OATP1B1 = biological target: T3, OATP1B1 (Homo sapiens, UniProt Q9Y6L6); assay: as above; format: cell-based; settings: 10 μM DY-635 vs rifampicin 20 μM; substrate [3H]estrone-sulfate 30 nM; transfected HEK cells
T3 construct: expressed in transfected cells; host or cells: HEK293 (pcDNA5 vector)
T3 sequence (Q9Y6L6 1-691): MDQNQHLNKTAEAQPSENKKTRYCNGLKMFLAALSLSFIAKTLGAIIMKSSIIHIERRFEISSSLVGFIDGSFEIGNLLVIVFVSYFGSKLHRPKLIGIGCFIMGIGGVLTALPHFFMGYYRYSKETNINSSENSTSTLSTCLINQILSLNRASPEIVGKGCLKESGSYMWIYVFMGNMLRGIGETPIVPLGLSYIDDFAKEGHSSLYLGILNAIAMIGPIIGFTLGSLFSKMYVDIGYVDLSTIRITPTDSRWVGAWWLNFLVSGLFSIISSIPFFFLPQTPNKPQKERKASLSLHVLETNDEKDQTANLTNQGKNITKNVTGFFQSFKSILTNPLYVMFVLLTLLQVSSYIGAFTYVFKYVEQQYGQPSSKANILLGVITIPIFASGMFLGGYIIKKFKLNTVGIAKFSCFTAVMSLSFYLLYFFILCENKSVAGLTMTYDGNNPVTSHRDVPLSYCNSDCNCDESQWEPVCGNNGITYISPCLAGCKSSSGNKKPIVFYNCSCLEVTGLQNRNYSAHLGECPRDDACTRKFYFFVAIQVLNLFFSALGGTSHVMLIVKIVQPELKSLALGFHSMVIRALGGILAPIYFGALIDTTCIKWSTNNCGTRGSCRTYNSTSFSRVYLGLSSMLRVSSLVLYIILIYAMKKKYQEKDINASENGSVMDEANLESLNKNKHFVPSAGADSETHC
Protocol: as §1

[2] = In vivo pharmacokinetics of polymethine dyes (organ-specific clearance by liver and kidneys); design: species or system male Wistar rats; settings: i.v., rats
Protocol: Catheters were placed in the jugular vein, carotid artery, bladder and bile duct of male Wistar rats (300–400 g body weight (BW)). After i.v. administration of DY-635 (13 pmol per g BW), DY-630 (13 pmol per g BW), DY-750 (13 pmol per gBW), DY-751 (13 pmol per g BW), DY-731 (13 pmol per g BW), DY-777 (14 pmol per g BW), DY-682 (13 pmol per g BW), DY-704 (17 pmol per g BW), DY-732 (13 pmol per g BW), DY-754 (17 pmol per g BW), DY-678 (14 pmol per g BW), DY-778 (14 pmol per g BW) or 6.5 μg DY625-[NP] per g BW, bile was collected every 5 min and 200 μl arterial blood taken at defined times into heparinised tubes. DY-635 fluorescence in bile and plasma was measured in a spectrofluorometer (FluoStar Optima, BMG Labtech). Results are mean±s.e.m. of three biological replicates.

Row | Structure (SMILES) | effect on uptake of DY-635[NP](−) (HepaRG and HUVEC cells) | fluorescence decay over liver parenchyma (liver parenchyma) | uptake of DY-635 by primary hepatocytes [1] | affinity to NTCP (NTCP) | affinity to OATP1B3 compared with FDA-proposed competitor (OATP1B3) | affinity to OATP1B1 compared with FDA-proposed competitor (OATP1B1) | route of elimination (net organ-specific clearance) [2]
1 | O=C1NC(=NS(=O)(=O)c2cccc3ccccc23)S/C1=C\c1ccc(Br)cc1 [Pitstop-2] | inhibition of NP uptake |  |  |  |  |  | 
2 | CC(C)(C)c1cc(/C=C/C=C2/N(CCCCCC(=O)NCCN)c3ccc(S(=O)(=O)O)cc3C2(C)C)c2cc3c4c(c2[o+]1)CCCN4CCC3 [DY-635] |  | exponential decay | rapid, temperature sensitive | moderate affinity | substantially exceeded that of the Food and Drug Administration (FDA) proposed ligand for drug development, rifampicin | substantially exceeded that of the Food and Drug Administration (FDA) proposed ligand for drug development, rifampicin | excreted preferentially via the bile; also recorded: preferential hepatobiliary clearance
